Key:
[1] = test system: BXPC3 cells; assay: Cell cycle phase by propidium iodide flow cytometry; format: cell-based, human; conditions: BXPC3, 20 μM, 24 hours
Experimental: (§1) MIA PaCa2, SW 1990, BXPC3 and HPDE 6C7 cells were treated with either 8-tocotrienol 20 μM or vehicle for 24 hours. Cells were harvested, washed twice in PBS, and fixed in ethanol overnight. Pellets were washed the following day in PBS, stained with propidium iodide, and analyzed by flow cytometry for cell cycle phase. […] Important regulators of the G1 cell cycle phase include members of the cyclin kinase inhibitor family. One of these members, p27^kip1, appears to be important in the progression of pancreatic cancer.

[2] = test system: MIA PaCa2 cells; assay: as above; format: cell-based, human; conditions: MIA PaCa2, 20 μM, 24 hours
Experimental: as §1

[3] = test system: HPDE 6C7 cells; assay: as above; format: cell-based, human; conditions: HPDE 6C7, 20 μM, 24 hours
Experimental: as §1

[4] = test system: SW 1990 cells; assay: as above; format: cell-based, human; conditions: SW 1990, 20 μM, 24 hours
Experimental: as §1

[5] = test system: p-cRaf, p-MEK, and p-ERK; assay: Immunoblot of downstream phosphorylated targets of oncogenic Ras; format: cell-based, human; conditions: pancreatic cancer cell lines, 20 μM
Experimental: (§2) The Ras effector pathways Raf-MEK-ERK and PI3 kinase-AKT are important for cell proliferation and survival, respectively. Pancreatic cancer cell lines (MIA PaCa2, SW1990, BXPC3) and HPDE 6C7 cells were treated with 8-tocotrienol (20 μM) and cell lysates were collected and prepared at progressive time intervals as described above. Proteins from lysates were run by SDS PAGE and immunoblotted with the following antibodies: Ras, p-cRaf (ser 338), p-MEK1/2, MEK1/2, pERK 44/42, ERK 44/42 (Cell Signaling) and c-Raf (BD Transduction Laboratories). […] The MIA PaCa2 and SW1990 cells were then tested for AKT inhibition. The cells were treated with δ-tocotrienol (20 μM) for 24 and 48 hours and cell lysates were run by SDS-PAGE and immunoblotted for p-AKT and AKT (Cell Signaling). […] Taken together, the inhibition of downstream effectors of oncogenic Ras signaling by δ-tocotrienol without an effect on Ras protein levels may indicate a negative regulatory role of 8-tocotrienol on the function of oncogenic Ras. The pancreatic ductal epithelial cell proliferative inhibition by δ-tocotrienol was tested to see if it occurs through blocking aberrant signal transduction cascades. […]

[6] = test system: BXPC3 cells; assay: Proliferation by MTT, increasing concentrations of δ-tocotrienol; format: cell-based, human; conditions: BXPC3, at 24 hours; read-out: IC50 (inhibition of proliferation, MTT)
Experimental: (§3) FIG. 24 is a graph wherein BXPC3 pancreatic cancer cells (3×10^3) were plated in 96 well plates and treated the following day with δ-tocotrienol. Proliferation was assessed by MTT at 24 hour intervals. […] HPDE 6C7 cells were also treated with increasing concentrations of δ-tocotrienol for 24 hours.
(§4) MIA PaCa2, SW1990, BXPC3, and HPDE 6C7 cells (3×10^3) were cultured as described in the Examples above, in 96-well plates and treated the following day with increasing concentrations of δ-tocotrienol.

[7] = test system: MIA PaCa2 xenografts; assay: MIA PaCa2 luciferase xenograft tumor growth in nude mice; format: in vivo; conditions: 100 mg/kg/day by gavage
Experimental: (§5) Rate of growth by day 10 of treatment is less in the tocotrienol treatment group. Stable transfectants of MIA PaCa2 cells with luciferase were injected subcutaneously into nude mice. Tumor volumes were measured every 2 days with calibers and the rate of growth was determined weekly by measuring tumor luminescence using the IVIS 100 Xenogen system. Tumors of similar volume (100-150 mm^3) and rate of growth based on luminescence were randomized to receive either vehicle or δ-tocotrienol (100 mg/kg/day) by gavage for 20 days.
as §5, with “Stable” for “Rate of growth by day 10 of treatment is less in the tocotrienol treatment group. Stable”, “mice. Mice were treated with either rice bran oil (vehicle) or δ-tocotrienol (100 mg/kg/day) via gavage five times per week.” for “mice.”

[8] = test system: MIA PaCa2 cells; assay: MTT cell viability, δ-tocotrienol, fluorouracil or combination; format: cell-based, human
Experimental: FIG. 39 is a graph MIA PaCa2 pancreatic cancer cells (3×10^3) treated with indicated concentrations of delta-tocotrienol, fluorouracil (5FU), or a combination of the indicated delta-tocotrienol and 5FU.
The MiaPaCa 2 cells were plated as above into 96 well plates and treated the following day with increasing concentrations of δ-tocotrienol, fluorouracil (5FU), or a combination of δ-tocotrienol and fluorouracil. The cells were collected and analyzed for cell viability using an MTT assay. […] MIA PaCa2 cells (3×10^3) were cultured as described in the Examples above, in 96-well plates and treated the following day with vehicle, δ-tocotrienol, fluorouracil, or a combination of δ-tocotrienol and fluorouracil.

[9] = test system: BxPc-3 cells; assay: Annexin V-FITC staining, flow cytometry for apoptosis; format: cell-based, human; conditions: BxPc-3, varying concentrations, 24 hours
Experimental: FIG. 4 is a graph wherein BXPC3 pancreatic cancer cells were treated with in varying concentrations of δ-tocotrienol or vehicle for 24 hours. Cells were collected and stained with Annexin V-FITC and analyzed by flow cytometry for apoptosis.
MiaPaCa2 and HPDE 6C7 cells were cultured, as discussed above, and treated with δ-tocotrienol or vehicle. […] MiaPaCa-2, BxPc-3, and SW1990 pancreatic cancer cells were treated with in varying concentrations of δ-tocotrienol or vehicle for 24 hours. The cells were then harvested for annexin V-FITC staining and analyzed by flow cytometry.

[10] = test system: HPDE 6C7 cells; assay: Proliferation by MTT, increasing concentrations of δ-tocotrienol; format: cell-based, human; conditions: HPDE 6C7, 24 hours, even at the highest concentrations
Experimental: as §4

[11] = test system: MIA PaCa2 cells; assay: as above; format: cell-based, human; conditions: MIA PaCa2, at 24 hours; read-out: IC50 (inhibition of proliferation, MTT)
Experimental: as §3, with “FIG. 22” for “FIG. 24”, “wherein MIA PaCa2” for “wherein BXPC3”
as §4

[12] = test system: p-AKT; assay: Immunoblot for p-AKT and AKT; format: cell-based, human; conditions: MIA PaCa2 and SW1990, 20 μM, 24 and 48 hours
Experimental: as §2

CC(C)=CCC/C(C)=C/CC/C(C)=C/CC[C@]1(C)CCc2cc(O)cc(C)c2O1 [T3 delta, delta tocotrienol]
cell cycle phase [1]: significant G1 cell cycle arrest
cell cycle phase [2]: significant G1 cell cycle arrest
cell cycle phase [3]: no effect on cell cycle phase
cell cycle phase [4]: significant G1 cell cycle arrest
downstream phosphorylated targets of oncogenic Ras p-cRaf, p-MEK, p-ERK [5]: selectively inhibited
IC50 [6]: 20 to 25 µM
rate of growth by tumor luminescence ([7]; day 10 of treatment): significantly less
reduction in tumor growth ([7]; nude mice, vs vehicle): 50%
concentration at which the effect became significant vs vehicle [8]: 50 µM
IC50 ([8]; at 24 hours): 50 µM
induction of apoptosis (annexin V-FITC) [9]: dose dependent induction of apoptosis
antiproliferative effect [10]: relatively resistant
IC50 [11]: 20 to 25 µM
p-AKT protein levels [12]: decrease in p-AKT protein levels

From US8846653B2, “Delta-tocotrienol treatment and prevention of pancreatic cancer” (University of South Florida, priority 2006, dated 2014)
